Measurements reported in patent US20250276983A1, “COMPOUNDS AND METHODS FOR MODULATING HER2” (IAMBIC THERAPEUTICS, INC., priority 2022, published 2025).
Read-outs that look alike come from different tables or passages of the source.

Experiments:
BaF3_HER2YVMA cells = assay: Cell growth inhibition assay, BaF3_HER2YVMA; format: cell-based; settings: BaF3_HER2YVMA cells, 3 days treatment, CellTiterGlo 2.0, read-out: HER2-YVMA IC50 (nM), cell growth inhibition
BaF3_EGFRWT cells = assay: Cell growth inhibition assay, BaF3_EGFRWT; format: cell-based; settings: 72 h, 80 ng/mL recombinant human EGF, 3 days treatment, CellTiterGlo 2.0, read-out: EGFR WT IC50 (nM), cell growth inhibition
BaF3_HER2WT cells = assay: Cell growth inhibition assay, BaF3_HER2WT; format: cell-based; settings: 3 days treatment, CellTiterGlo 2.0, read-out: HER2 WT IC50 (nM), cell growth inhibition
wtERBB2 = wtERBB2 (Homo sapiens (Human), UniProt P04626); assay: HotSpot radiometric kinase activity assay, wtERBB2; format: biochemical; settings: 30 nM wtERBB2, 10 μM 33P-ATP, 20 min preincubation, 2 hours, read-out: HER2 WT IC50
Chain of wtERBB2 (P04626 23-1255): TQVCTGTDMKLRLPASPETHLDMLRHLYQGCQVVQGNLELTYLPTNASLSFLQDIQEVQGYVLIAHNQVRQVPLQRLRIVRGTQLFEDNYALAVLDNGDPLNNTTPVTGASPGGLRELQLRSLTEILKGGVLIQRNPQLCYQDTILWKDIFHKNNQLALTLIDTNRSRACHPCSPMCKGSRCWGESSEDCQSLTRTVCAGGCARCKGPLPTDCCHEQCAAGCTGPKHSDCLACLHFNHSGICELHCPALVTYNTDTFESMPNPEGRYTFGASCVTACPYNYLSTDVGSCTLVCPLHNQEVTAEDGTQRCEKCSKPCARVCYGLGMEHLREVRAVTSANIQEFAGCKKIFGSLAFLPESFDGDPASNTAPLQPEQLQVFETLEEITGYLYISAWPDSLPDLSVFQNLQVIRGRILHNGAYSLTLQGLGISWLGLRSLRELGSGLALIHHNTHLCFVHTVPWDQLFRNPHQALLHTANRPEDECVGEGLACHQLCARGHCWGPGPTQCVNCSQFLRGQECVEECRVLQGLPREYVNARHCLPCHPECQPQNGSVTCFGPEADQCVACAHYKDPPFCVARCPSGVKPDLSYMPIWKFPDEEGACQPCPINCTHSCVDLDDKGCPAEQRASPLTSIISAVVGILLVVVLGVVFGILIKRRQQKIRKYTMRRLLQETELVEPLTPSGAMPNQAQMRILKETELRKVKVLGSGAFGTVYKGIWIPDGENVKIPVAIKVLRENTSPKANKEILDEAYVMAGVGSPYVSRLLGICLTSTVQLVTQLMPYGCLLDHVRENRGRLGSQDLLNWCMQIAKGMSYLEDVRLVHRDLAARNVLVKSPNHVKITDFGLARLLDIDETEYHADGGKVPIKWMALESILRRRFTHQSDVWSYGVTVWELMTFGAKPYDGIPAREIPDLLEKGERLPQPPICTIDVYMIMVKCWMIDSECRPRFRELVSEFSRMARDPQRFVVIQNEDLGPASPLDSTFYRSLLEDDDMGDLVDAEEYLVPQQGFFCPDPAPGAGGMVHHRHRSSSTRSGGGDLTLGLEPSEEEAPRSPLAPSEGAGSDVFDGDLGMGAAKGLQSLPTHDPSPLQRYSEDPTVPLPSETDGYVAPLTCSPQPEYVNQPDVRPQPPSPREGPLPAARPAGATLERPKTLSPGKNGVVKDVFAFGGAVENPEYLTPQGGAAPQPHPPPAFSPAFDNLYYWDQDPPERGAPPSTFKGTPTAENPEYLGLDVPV
Protocol: The purpose of the wtERBB2, ERBB2-A775_G776insYVMA (ERBB2YVMA), wtEGFR biochemical assay was to evaluate the inhibition (% inhibition and IC50 values) of the small molecule inhibitors by using the “HotSpot” radiometric kinase activity assay. HotSpot assays monitor the […] of kinase substrate by the radioactive gamma phosphate of adenosine triphosphate (33P-ATP) during biochemical reactions. HotSpot assays was performed in steps upon completion of the kinase reaction: deposition of a reaction mixture aliquot onto P81 ion exchange paper, extensive washing of the aforementioned P81 paper using phosphoric acid to remove unbound radiolabeled 33P-ATP from the P81 paper, and finally visualization and quantification of the dried P81 paper utilizing a phosphoimager. […] Typical reaction solutions (10 μL final reaction volume) contained the following buffer conditions: 20 mM Hepes (pH 7.5), 10 mM MgCl2, 1 mM EGTA, 0.01% Brij35, 0.02 mg/mL BSA, 0.1 mM Na3VO4, 2 mM DTT, 1% DMSO. The assay was primed by preparing a fresh 0.2 mg/mL solution of pEY (Sigma Cat: P7244) substrate in the reaction buffer and supplementing that solution with […] of MnCl2 as substrate cofactor (Sigma Cat: M9522). The kinase of interest was then added to the solution at the appropriate concentration (30 nM wtERBB2 from, or 20 nM ERBB2YVMA, or 4 nM wtEGFR) and gently mixed prior to delivery of compound in 100% DMSO by acoustic dispensing (Beckman Echo550). Compound, Kinase, and substrate were allowed to incubate for 20 min at room temperature prior to the initiation of the reaction by addition of 33P-ATP (PerkinElmer Cat: NEG602, final conc 10 μM). […] IC50 determinations were made from a plot of kinase activity as a function of inhibitor concentration fit to the 4-parameter IC50 equation with the enzyme concentration held constant using GraphPad Prism (San Diego).

IC50 (BaF3_HER2YVMA cells; 72 h) [nM]	IC50 (BaF3_EGFRWT cells) [nM]	IC50 (BaF3_HER2WT cells; 72 h) [nM]	IC50 (wtERBB2) [nM]	IC50 (BaF3_HER2YVMA cells) [nM]	IC50 (BaF3_HER2WT cells) [nM]	Structure (SMILES)
< 200	1500 to 5000	< 200	< 200			Cc1cc(Nc2ncnn3ccc(C4CCCN(C(=O)/C=C/CN(C)C)CC4)c23)ccc1Oc1ccn2ncnc2c1 (centres unmarked) [Example 93, (E)-1-(4-(4-((4-([1,2,4]triazolo[1,5-a]pyridin-7-yloxy)-3-methylphenyl)amino)pyrrolo[2,1-f][1,2,4]triazin-5-yl)azepan-1-yl)-4-(dimethylamino)but-2-en-1-one]
500 to 1500	1500 to 5000	< 200	< 200			Cc1cc(Nc2ncnn3ccc(C4CN(C(=O)/C=C/CN5CC(F)(F)C5)C4)c23)ccc1Oc1ccn2ncnc2c1 [Example 91, (E)-1-(3-(4-((4-([1,2,4]triazolo[1,5-a]pyridin-7-yloxy)-3-methylphenyl)amino)pyrrolo[2,1-f][1,2,4]-triazin-5-yl)azetidin-1-yl)-4-(3,3-difluoroazetidin-1-yl)but-2-en-1-one]
			< 200			Cc1cc(Nc2ncnn3ccc([C@H]4CCCN(C(=O)/C=C/CN(C)C)CC4)c23)ccc1Oc1ccn2ncnc2c1 [Example 110, (S,E)-1-(4-(4-((4-([1,2,4]triazolo[1,5-a]pyridin-7-yloxy)-3-methylphenyl)amino)pyrrolo[2,1-f][1,2,4]triazin-5-yl)azepan-1-yl)-4-(dimethylamino)but-2-en-1-one]
< 200	1500 to 5000	< 200	< 200			C=CC(=O)NC1CN(c2ccn3ncnc(Nc4ccc(Oc5ccn6ncnc6c5)c(C)c4)c23)C1 [Example 14, N-(1-(4-((4-([1,2,4]triazolo[1,5-a]pyridin-7-yloxy)-3-methylphenyl)amino)pyrrolo[2,1-f][1,2,4]triazin-5-yl)azetidin-3-yl)acrylamide]
			< 200			Cc1cc(Nc2ncnn3ccc([C@H]4CCCN(C(=O)/C=C/CN(C)C)C4)c23)ccc1Oc1ccn2ncnc2c1 [Example 108, (R,E)-1-(3-(4-((4-([1,2,4]triazolo[1,5-a]pyridin-7-yloxy)-3-methylphenyl)amino)-pyrrolo[2,1-f][1,2,4]-triazin-5-yl)piperidin-1-yl)-4-(dimethylamino)but-2-en-1-one]
200 to 500	1500 to 5000	< 200	< 200			C=CC(=O)N1CCC2(C1)CN(c1ccn3ncnc(Nc4ccc(Oc5ccn6ncnc6c5)c(C)c4)c13)C2 [Example 155, 1-(2-{4-[(3-methyl-4-{[1,2,4]triazolo[1,5-a]pyridin-7-yloxy}phenyl)amino]pyrrolo[2,1-f][1,2,4]triazin-5-yl}-2,6-diazaspiro[3.4]octan-6-yl)prop-2-en-1-one]
			< 200			Cc1cc(Nc2ncnn3ccc([C@H]4CCN(C(=O)/C=C/CN(C)C)C4)c23)ccc1Oc1ccn2ncnc2c1 [Example 100, (R,E)-1-(3-(4-((4-([1,2,4]triazolo[1,5-a]pyridin-7-yloxy)-3-methylphenyl)amino)-pyrrolo[2,1-f]1,2,4-triazin-5-yl)pyrrolidin-1-yl)-4-(dimethylamino)but-2-en-1-one]
			< 200			Cc1cc(Nc2ncnn3ccc([C@@H]4CCCN(C(=O)/C=C/CN(C)C)C4)c23)ccc1Oc1ccn2ncnc2c1 (single isomer, unassigned) [Example 107]
< 200	1500 to 5000	< 200				CO[C@@H]1CN(C/C=C/C(=O)N2CCC(c3ccn4ncnc(Nc5ccc(Oc6ccn7ncnc7c6)c(C)c5)c34)CC2)C[C@H]1OC [Example 170, (E)-1-(4-(4-((4-([1,2,4]triazolo[1,5-a]pyridin-7-yloxy)-3-methylphenyl)amino)pyrrolo[2,1-f][1,2,4]triazin-5-yl)piperidin-1-yl)-4-((3R,4R)-3,4-dimethoxypyrrolidin-1-yl)but-2-en-1-one]
	1500 to 5000			< 200	< 200	C=CC(=O)N1CC2CCC1CC2c1ccn2ncnc(Nc3ccc(Oc4ccn5ncnc5c4)c(C)c3)c12 (single isomer, unassigned) [Examples 139 and 140, first eluting isomer, 1-(5-(4-((4-([1,2,4]triazolo[1,5-a]pyridin-7-yloxy)-3-methylphenyl)amino)pyrrolo[2,1-f][1,2,4]triazin-5-yl)-2-azabicyclo[2.2.2]octan-2-yl)prop-2-en-1-one]
< 200	1500 to 5000	< 200				Cc1cc(Nc2ncnn3ccc(C4CCCN(C(=O)/C=C/CN(C)C)CC4)c23)ccc1Oc1ccn2ncnc2c1 (single isomer, unassigned) [Examples 109 and 110, first eluting isomer, (E)-1-(4-(4-((4-([1,2,4]triazolo[1,5-a]pyridin-7-yloxy)-3-methylphenyl)amino)pyrrolo[2,1-f][1,2,4]triazin-5-yl)azepan-1-yl)-4-(dimethylamino)but-2-en-1-one]
< 200	1500 to 5000	< 200				COC1CCN(C/C=C/C(=O)N2CC(c3ccn4ncnc(Nc5ccc(Oc6ccn7ncnc7c6)c(C)c5)c34)C2)C1 (centres unmarked) [Example 41, (E)-1-(3-(4-((4-([1,2,4]triazolo[1,5-a]pyridin-7-yloxy)-3-methylphenyl)amino)pyrrolo[2,1-f][1,2,4]triazin-5-yl)azetidin-1-yl)-4-(3-methoxypyrrolidin-1-yl)but-2-en-1-one]
< 200	1500 to 5000	< 200				COC1CCN(C/C=C/C(=O)N2CCC(c3ccn4ncnc(Nc5ccc(Oc6ccn7ncnc7c6)c(C)c5)c34)CC2)C1 (centres unmarked) [Example 118, E-1-(4-(4-((4-([1,2,4]triazolo[1,5-a]-207-midazol-7-yloxy)-3-methylphenyl)amino)pyrrolo[2,1-f][1,2,4]triazin-5-yl)piperidin-1-yl)-4-(3-methoxypyrrolidin-1-yl)but-2-en-1-one]

Structure (SMILES)	IC50 (BaF3_HER2YVMA cells; 72 h) [nM]	IC50 (BaF3_EGFRWT cells) [nM]	IC50 (BaF3_HER2WT cells; 72 h) [nM]	IC50 (wtERBB2) [nM]	IC50 (BaF3_HER2YVMA cells) [nM]	IC50 (BaF3_HER2WT cells) [nM]
C=CC(=O)N1CC=C(c2ccn3ncnc(Nc4ccc(Oc5ccn6ncnc6c5)c(C)c4)c23)C1 [Example 28, 1-(3-(4-((4-([1,2,4]triazolo[1,5-a]pyridin-7-yloxy)-3-methylphenyl)amino)pyrrolo[2,1-f][1,2,4]triazin-5-yl)-2,5-dihydro-1H-pyrrol-1-yl)prop-2-en-1-one acetate]	500 to 1500	1500 to 5000	< 200			
Cc1cc(Nc2ncnn3ccc(C4CCN(C(=O)C5CC(=O)N5)CC4)c23)ccc1Oc1ccn2ncnc2c1 (centres unmarked) [Example 36, 4-(4-(4-((4-([1,2,4]triazolo[1,5-a]pyridin-7-yloxy)-3-methylphenyl)amino)pyrrolo[2,1-f][1,2,4]triazin-5-yl)piperidine-1-carbonyl)azetidin-2-one acetate]	1500 to 5000	1500 to 5000	1500 to 5000			
C=CC(=O)N1C2CCC1CC(c1ccn3ncnc(Nc4ccc(Oc5ccn6ncnc6c5)c(C)c4)c13)C2 (single isomer, unassigned) [Examples 124 and 125, first eluting isomer, 1-(3-(4-((4-([1,2,4]triazolo[1,5-a]pyridin-7-yloxy)-3-methylphenyl)amino)pyrrolo[2,1-f][1,2,4]triazin-5-yl)-8-azabicyclo[3.2.1]octan-8-yl)prop-2-en-1-one]	< 200	< 200	< 200			
